Laboratory results taken from patent US7445931B2, “Compositions and methods for enrichment of neural stem cells using ceramide analogs” (Bresagen, Inc., priority 2002, dated 2008).

What was measured:
differentiating ES cells = experiment: Apoptosis (TUNEL) in ceramide-depleted differentiating ES cells and its restoration by ceramide or analogs; type: cell-based, mouse; conditions: for reduction of the degree of apoptosis: EB8 and NP2 stage, 25 μM FB1 or 50 nM myriocin for 48 hours
Method: Fumonisin B1 (FB1) or myriocin-treated (ceramide-depleted) differentiating ES cells were incubated with natural ceramide. To prepare the natural ceramide, 50 mg of EBs or NPs were resuspended in 500 μl of water, and after phase separation with 500 μl of CHCl3/CH3OH (1:1 by vol.) the neutral lipids were recovered from the lower phase. The neutral lipids were evaporated to dryness with a gentle stream of nitrogen and redissolved in 1 ml of CHCl3. The solution was applied to a silicic acid gel column (0.5 g) and fatty acids and cholesterol washed out with another 15 ml of CHCl3 (Dasgupta and Hogan, 2001 J. Lipid Res., 42:301-308). The ceramide fraction was then eluted with 20 ml of CHCl3/acetone (9:1, by vol.), evaporated to dryness, and the residue (approximately 6 nmoles of ceramide) dissolved in 20 μl of ethanol containing 2% dodecane (vol./vol.). Aliquots of 5 μl were mixed with 1 ml of medium, yielding a final concentration of 1.5 μM natural ceramide for induction of apoptosis (Ji et al., 1995 FEBS Lett., 358:211-214).
Differentiating ES cells at the EB8 cells were dissociated and grown for 24 hours on laminin/ornithin-coated cover slips (NP1 stage) in DMEM/F12 (50/50), supplemented with 1×N2 and 20 ng/ml FGF-2. Cells were incubated for 3 hours with 10 μM bromodeoxyuridine (BrdU) and the TUNEL assay or immunostainings performed after 5 hours of incubation. For immunostaining, cells were fixed with 4% paraformaldehyde in phosphate-buffered saline (PBS). Fixed cells were permeabilized with 0.2% Triton X-100 in PBS for 5 minutes at room temperature and immunostaining performed as described previously (Bieberich et al., 2001 J. Biol. Chem., 276:44396-44404). The nuclei were stained by treatment with 2 μg/ml Hoechst 33258 in PBS for 30 minutes at room temperature. Apoptotic nuclei were stained using the fluorescein FragEL TUNEL assay according to instructions of the manufacturer (Oncogene).
The degree of apoptosis in differentiating ES cultures was determined since it was previously proposed that ceramide elevation induces apoptosis in NPs (Bieberch et al., 2001 J. Biol. Chem., 276:44396-44404). […] Apoptosis was elevated at the EB8 stage ([…]), and was highest at the NP2 stage (35+/−5%). […] Apoptosis was restored by the addition of 30 μM N-acetyl sphingosine (C2-ceramide), 80 μM of the novel ceramide analog N-oleoyl serinol (S18), or 1 μM of natural ceramide that was extracted from differentiating ES cells.

[1] = tested on: differentiating ES-J1 cells; experiment: Apoptosis (TUNEL staining, cell death) in differentiating mouse ES cells incubated with ceramide analogs; type: cell-based; conditions: 15 hours with 75 μM S16 or S18, or 35 μM C2-ceramide
Method: In vitro neural differentiation of mouse ES cells (ES-J1, ES-D3) followed a serum deprivation protocol as described previously (Hancock, et al., 2000 Biochem. Biophys. Res. Commun., 271: 418-421). The differentiation stages are outlined in FIG. 2. Briefly, ES cells were grown on gamma-irradiated feeder fibroblasts for four days in Knockout DMEM/15% Knockout serum replacement, supplemented with ESGRO (LIF; Chemicon; Cat No. ESG1106) at a concentration of 10^3 units/ml medium. ES cells were then grown for another four days on gelatin-coated bacterial culture dishes without a fibroblast feeder layer, and were then grown for three days in Knockout DMEM/15% heat-inactivated ES qualified Fetal Bovine Serum, supplemented with 10^3 units LIF per ml of medium. Upon trypsinization, ES cells were transferred to bacterial culture dishes without gelatin, and embryoid body (EB) formation was induced for four days in Knockout DMEM/10% heat-inactivated ES qualified FBS without LIF (EB4 stage). On the fifth day, floating and loosely attached EBs were rinsed off and transferred to tissue culture dishes. The EBs were allowed to attach to the tissue culture dish surface by incubation for another 24 hours in Knockout DMEM with 10% heat-inactivated ES qualified fetal bovine serum. Neural differentiation due to serum deprivation was induced by cultivation of the EBs for three days in DME/12 (50/50), supplemented with 1×N2 (Invitrogen/Life Technologies; Cat No. 17502, dilution of 1:100) but without serum (EB8 stage). Serum-deprived EBs were then trypsinized, plated on poly-L-ornithine/laminin-coated tissue culture dishes and grown for four days in DMEM/F12 (50/50), supplemented with N2 and 10 ng/ml FGF-2, but without serum. This incubation period is referred to as neuroprogenitor (NP) stage due to commitment of neuroepithelial precursor cells to neuroprogenitor cells, and/or due to the selective expansion of neural progenitor cells in the FGF-2 containing serum-free medium. These cells have committed during the EB stages and were expanded during the NP stage. NPs grown for 48 hours upon replating of trypsinized EBs were referred to as the NP2 stage. On the fifth day of NP formation, the medium was changed to Neurobasal (Invitrogen/Life Technologies; Cat No. 21103-049), with 5% heat-inactivated FBS, and the cells were incubated for another seven days. During this time, NPs fully differentiate to glial cells and neurons. Cells cultured for 24 hours or 96 hours upon changing the medium were referred to as the D1 or D4 stage, respectively.
ES cells were cultured and differentiated to the EB4, EB8, NP2, or D4 stage following the protocol as described above. The ceramide analog S18 was dissolved in ethanol at a concentration of 100 mM and then added to the cells at a final concentration of 75 μM in medium. The cells at the EB8 stage were incubated for 48 hours in the presence of the ceramide analog and were then transplanted into mouse brains.
Differentiating ES cells were grown on cover slips and fixed with 4% paraformaldehyde in phosphate-buffered saline (PBS). Fixed cells were permeabilized with 0.5% Triton X-100 in PBS for 5 minutes at room temperature and unspecific binding sites were saturated by incubation with 3% ovalbumin in PBS for 1 hour at 37° C. The cover slips were then incubated with 5 μg/ml primary antibody (anti-ceramide clone 15B4 mouse IgM, Alexis; anti-PAR-4 rabbit IgG, Santa Cruz; anti-PCNA rabbit IgG, Santa Cruz; anti-nestin clone 401 rat IgG, BD Pharmingen) in 0.1% ovalbumin/PBS, followed by incubation with the appropriate fluorescence-labeled secondary antibody (5 μg/ml Alexa 546 conjugated anti-mouse IgG, Molecular Probes; Alexa 488 conjugated anti-rabbit IgG, Molecular Probes, Cy3 conjugated anti-mouse IgM, Jackson) for 2 hours at 37° C. The nuclei were stained by treatment with 2 μg/ml Hoechst 33258 in PBS for 30 minutes at room temperature. […]

[2] = tested on: Mouse neuroblastoma (F-11) cells; experiment: Induction of apoptosis in mouse neuroblastoma cells (Hoechst 33258 staining); type: cell-based; conditions: 24 hours
Method: Mouse neuroblastoma (F-11) cells were incubated for 24 hours in 0.1, 0.2, 0.5, or 1.0 μM of laurylgallate (Aldrich). Apoptosis was determined by punctate staining of condensed nuclei with Hoechst 33258 (Sigma, […] medium for 30 minutes at room temperature).

[3] = tested on: differentiating ES cells (NPs), PAR-4; experiment: S18-induced apoptosis (TUNEL) in NPs after PAR-4 antisense knockdown or PAR-4-RFP overexpression; type: cell-based, mouse
Method: For construction of PAR-4-REP cDNA, RT-PCR was performed with the oligonucleotide primer pair sense 5′atggcgaccggcggctatcg3′ (SEQ ID NO:14) and antisense 5′ctaccttgtcagctgcccaacaac3′(SEQ ID NO:15), using the first strand cDNA generated from embryoid bodies (EB8 stage) as template for the amplification reaction. The primers were endowed with the restriction enzyme cleaving sites Eco47III (sense) and SaII (antisense) for ligation of the PAR-4 specific amplification product into the multiple cloning site of HcRFP, a vector that encodes a far-red shifted variant of red fluorescent protein (Clontech). Differentiating ES cells at the NP1 stage were transfected with the PAR-4-RFP construct using the lipofectamine 2000 procedure according to the manufacturer's instructions (Invitrogen). The transfected cells were incubated in DMEM F12 (50/50), supplemented with 1×N2 and 20 ng/ml FGF-2, and the TUNEL assay or immunostainings were performed after 48 hours of incubation and NP formation. For depletion of ceramide, differentiating ES cell were incubated with 25 μM fumonisin B1 or 50 nM myriocin 48 hours prior to transfection with the PAR-4-RFP vector, and the inhibitor maintained in the medium throughout the post-transfection period. For induction of apoptosis, the novel ceramide analog S18 (40-100 μM), N-acetyl sphingosine (C2-ceramide, 10-30 μM), or natural ceramide isolated from EBs (0.5-1.5 μM) was added 48 hours after transfection with the PAR-4-RFP cDNA, and the degree of apoptosis quantified after 15-20 hours using TUNEL assays with paraformaldehyde-fixed cells as described above.
(§1) Endogenous expression of PAR-4 was suppressed by transfection of differentiating ES cells at the NP1 stage with 2 nmoles (per well in 24 wells plate) of the morpholino-based antisense oligonucleotide 5′cgatagccgccggtcgccatgttcc3′(SEQ ID NO:16) (see Guo et al., 1998, Nature Med., 4:957-962; Guo et al., 2001 Brain Res, 903:13-25) following the instructions of the manufacturer (GeneTools) in 0.5 ml of serum-free DMEM/F-12, 1XN2 supplemented with 20 ng/ml FGF-2. For induction of apoptosis, the novel ceramide analog S18 (40-100), N-acetyl sphingosine (C2 ceramide, […], or natural ceramide isolated from EBs (0.5-1.5 μM) was added 48 hours after transfection with the anti-PAR-4 morpholino, and the degree of apoptosis quantified after 15-20 hours using TUNEL assays with paraformaldehyde-fixed cells as described above.

PAR-4 = PAR-4 immunoblot after transfection with PAR-4 antisense morpholino; type: cell-based, mouse; conditions: NPs transfected with 2 nmoles morpholino
Method: as §1
The amount of protein was determined following a modified Folin phenol reagent (Lowry) assay essentially as described in Wang and Smith (1975 Anal. Biochem., 63:414-417). Protein extracted with detergent was precipitated according to the Wessel and Fluegge method (Wessel and Flugge, 1984 Anal. Biochem, 138:141-143). SDS-PAGE was performed using the Laemmli method followed by immunoblotting (Laemmri, 1970 Nature, 227:680-685).

`CCCCCCCCCCCCC/C=C/[C@@H](O)[C@H](CO)NC(C)=O` [C2-ceramide, N-acetyl sphingosine, reference compound] was tested, and the “dependence of apoptosis on PAR-4 expression” value (differentiating ES cells; FB1-treated cells at the NP2 stage) was “only seen in cells that expressed PAR-4”, the “restoration of apoptosis in FB1-treated cells” value (differentiating ES cells; NP2 stage, 30 μM C2-ceramide, 80 μM S18, or 1 μM natural ceramide) was “restored” and the “number of TUNEL stained cells” value ([1]; EB8 stage) was 45±10%. For the same compound, the “number of TUNEL stained cells” value ([1]; NP2 stage) was 70±10%.

In the case of `CCCC[C@@H](C)[C@@H](OC(=O)C[C@@H](CC(=O)O)C(=O)O)[C@H](C[C@@H](C)C[C@H](O)CCCC[C@@H](O)C[C@H](O)[C@H](C)N)OC(=O)C[C@@H](CC(=O)O)C(=O)O` [FB1, Fumonisin B1, reference compound], the “reduction of the degree of apoptosis” value (differentiating ES cells) is reported as “about 50%”.

In the case of `CCCCCCCCCCCCCCCC(=O)NC(CO)CO` [S16, N-(2-hydroxy-1-(hydroxymethyl)ethyl)-palmitoylamide], the “number of TUNEL stained cells” value ([1]; EB8 stage) is reported as 45±10% and the “number of TUNEL stained cells” value ([1]; NP2 stage) is reported as 70±10%.

`CCCCCCCCCCCCOC(=O)c1cc(O)c(O)c(O)c1` [laurylgallate, n-dodecyl ester of 3,4,5-trihydroxybenzoic acid] showed a cells undergoing apoptosis ([2]; 0.5 μM laurylgallate) of 50% and a cells undergone apoptosis ([2]; 1.0 μM laurylgallate) of 100%.

For `CCCCCCC(=O)CCCCCC/C=C/C[C@@H](O)[C@H](O)[C@@](N)(CO)C(=O)O` [myriocin, reference compound], the “reduction of the degree of apoptosis” value (differentiating ES cells) was “about 50%”.

With LEHD-CHO [reference compound] the “effect of pre-incubation on apoptosis inducible with S18 or natural ceramide” value ([3]; differentiating ES cells, caspase 9 inhibitor pre-incubation) was “suppressed apoptosis”.

For “PAR-4 specific antisense morpholino: morpholino-based antisense oligonucleotide 5′cgatagccgccggtcgccatgttcc3′ (SEQ ID NO:16) (antisense CGATAGCCGCCGGTCGCCATGTTCC; all phosphorodiamidate morpholino (PMO)) [reference compound]”, the S18-induced apoptosis ([3]; NPs transfected with PAR-4 specific antisense morpholino, then S18) was “less than 30%” and the “expression level of PAR-4 relative to untransfected cells” value (PAR-4) was “about 25%”.
